Experimental data published in patent US9040663B2, “Melanocortin receptor-specific peptides” (AstraZeneca AB, priority 2009, dated 2015).
Like-named read-outs stand apart in the source and are kept apart here. Positions of bridges follow the written chain, without caps; N, C: chain ends. Non-standard residues stand in square brackets, D forms with d. Residues, ends and D or L forms follow the SMILES beside them. dPhe(4-CN) = N#Cc1ccc(C[C@@H](N)C(=O)O)cc1

What was measured:
[1] = biological target: T1, hMC4-R (Homo sapiens (Human), UniProt P32245); experiment: Competitive inhibition binding assay using [I125]-NDP-α-MSH, hMC4-R; conditions: membranes of HEK-293 cells expressing recombinant hMC4-R, read-out: MC4-R Ki
Experimental: 7.1 Competitive Inhibition Assay using [I^125]-NDP-α-MSH.
A competitive inhibition binding assay was performed for exemplified peptides according to the invention using membrane homogenates prepared from HEK-293 cells that express recombinant hMC4-R, hMC3-R, or hMC5-R, and from B-16 mouse melanoma cells (containing endogenous MC1-R). In some instances, HEK-293 cells that express recombinant hMC1-R were employed. Assays were performed in 96 well GF/B Millipore multiscreen filtration plates (MAFB NOB10) pre-coated with 0.5% bovine serum albumin (Fraction V). Membrane homogenates were incubated with 0.2 nM (for hMC4-R) 0.4 nM (for MC3-R and MC5-R) or 0.1 nM (for mouse B16 MC1-R or hMC1-R) [I^125]-NDP-α-MSH (Perkin Elmer) and increasing concentrations of test peptides of the present invention in buffer containing 25 mM HEPES buffer (pH 7.5) with 100 mM NaCl, 2 mM CaCl2, 2 mM MgCl2, 0.3 mM 1,10-phenanthroline, and 0.2% bovine serum albumin. After incubation for 60 minutes at 37° C., the assay mixture was filtered and the membranes washed three times with ice-cold buffer. Filters were dried and counted in a gamma counter for bound radioactivity. […] Maximal specific binding (100%) was defined as the difference in radioactivity (cpm) bound to cell membranes in the absence and presence of 1 μM NDP-α-MSH. […] Each assay was conducted in triplicate and the actual mean values are described, with results less than 0% reported as 0%. Ki values for test peptides of the present invention were determined using Graph-Pad Prism® curve-fitting software.

[2] = biological target: T1, hMC4-R; experiment: High and low density hMC4-R functional assay (cAMP, HEK293-T-REx-MC4-R cells); format: cell-based; conditions: for Emax: NDP-α-MSH = 100%, read-out: Intrinsic Activity (%)
Experimental: The cells were then dispensed into 96-well plates (BD 353916) in 198 μL (about 5×10^4) cells/well and incubated for 10 minutes at 37° C. The compound to be tested was diluted with DMSO to a final concentration of 1 mM. […] 120 μL of the 1 mM compound stock was pipetted in the second column on the plate. […] All assay samples were run in duplicate (i.e. each sample was in two low dox and two high dox plates, respectively). The plates were gently shaken and incubated for 15 minutes at 37° C.

[3] = 0.1 ng/mL Doxycycline (low density hMC4-R system)
[4] = 10 ng/mL Doxycycline (high density hMC4-R system)

T1 sequence (P32245 whole entry): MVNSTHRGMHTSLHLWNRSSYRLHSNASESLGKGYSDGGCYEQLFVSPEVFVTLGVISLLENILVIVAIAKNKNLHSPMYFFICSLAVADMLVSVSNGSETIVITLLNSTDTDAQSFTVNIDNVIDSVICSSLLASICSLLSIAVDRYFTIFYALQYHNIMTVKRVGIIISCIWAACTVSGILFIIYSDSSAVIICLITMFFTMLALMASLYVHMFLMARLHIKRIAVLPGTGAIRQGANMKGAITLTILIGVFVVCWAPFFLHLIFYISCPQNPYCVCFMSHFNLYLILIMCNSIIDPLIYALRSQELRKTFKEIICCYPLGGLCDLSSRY

SMILES | Ki [1] | EC50 [2, 3] | Emax [2, 3] | EC50 [2, 4] | Emax [2, 4]
CC(=O)N[C@@H](CCCNC(=N)N)C(=O)N[C@H]1CCC(=O)NCCC[C@@H](C(N)=O)NC(=O)[C@H](Cc2c[nH]c3ccccc23)NC(=O)[C@H](CCCNC(=N)N)NC(=O)[C@@H](Cc2ccccc2F)NC(=O)[C@H](CCC(N)=O)NC1=O [Example 59, Ac-Arg-cyclo(Glu-Gln-D-Phe(2-F)-Arg-Trp-Orn)-NH2] | 7 nM | 0.6 nM | 90% | 0.1 nM | 98%
CC(=O)N[C@@H](CCCNC(=N)N)C(=O)N[C@H]1CCC(=O)NCCC[C@@H](C(N)=O)NC(=O)[C@H](Cc2c[nH]c3ccccc23)NC(=O)[C@H](CCCNC(=N)N)NC(=O)[C@@H](Cc2ccccc2Cl)NC(=O)[C@H](CN)NC1=O [Example 62, Ac-Arg-cyclo(Glu-Dap-D-Phe(2-Cl)-Arg-Trp-Orn)-NH2] | 9 nM | 16 nM | 23% | 0.47 nM | 84%
CC(=O)N[C@@H](CCCNC(=N)N)C(=O)N[C@H]1CCCNC(=O)CC[C@@H](C(N)=O)NC(=O)[C@H](Cc2c[nH]c3ccccc23)NC(=O)[C@H](CCCNC(=N)N)NC(=O)[C@@H](Cc2cccc(C)c2)NC(=O)[C@H](CC(N)=O)NC1=O [Example 72, Ac-Arg-cyclo(Orn-Asn-D-Phe(3-Me)-Arg-Trp-Glu)-NH2] | 4 nM | 3 nM | 11% | 0.35 nM | 84%
CC(=O)N[C@@H](CCCNC(=N)N)C(=O)N[C@H]1CCC(=O)NCCC[C@@H](C(N)=O)NC(=O)[C@H](Cc2c[nH]c3ccccc23)NC(=O)[C@H](CCCNC(=N)N)NC(=O)[C@@H](Cc2ccccc2C)NC(=O)[C@H](CC(N)=O)NC1=O [Example 73, Ac-Arg-cyclo(Glu-Asn-D-Phe(2-Me)-Arg-Trp-Orn)-NH2] | 4 nM |  | 86% |  | 102%
CC(=O)N[C@@H](CCCNC(=N)N)C(=O)N[C@H]1CCCNC(=O)CC[C@@H](C(N)=O)NC(=O)[C@H](Cc2c[nH]c3ccccc23)NC(=O)[C@H](CCCNC(=N)N)NC(=O)[C@@H](Cc2cc(F)cc(F)c2)NC(=O)[C@H](CC(N)=O)NC1=O [Example 77, Ac-Arg-cyclo(Orn-Asn-D-Phe(3,5-diF)-Arg-Trp-Glu)-NH2] | 8 nM | 3 nM | 34% |  | 80%
CC(=O)N[C@H](CCCNC(=N)N)C(=O)N[C@H]1CC(=O)NCCCC[C@@H](C(N)=O)NC(=O)[C@H](Cc2c[nH]c3ccccc23)NC(=O)[C@H](CCCNC(=N)N)NC(=O)[C@@H](Cc2ccc(F)c(F)c2)NC(=O)[C@H](CCC(N)=O)NC1=O [Example 78, Ac-D-Arg-cyclo(Asp-Gln-D-Phe(3,4-diF)-Arg-Trp-Lys)-NH2] | 8 nM | 2 nM | 48% | 0.2 nM | 89%
CC(=O)N[C@H](CCCNC(=N)N)C(=O)N[C@H]1CC(=O)NCCCC[C@@H](C(N)=O)NC(=O)[C@H](Cc2c[nH]c3ccccc23)NC(=O)[C@H](CCCNC(=N)N)NC(=O)[C@@H](Cc2ccccc2F)NC(=O)[C@H](CCC(N)=O)NC1=O [Example 82, Ac-D-Arg-cyclo(Asp-Gln-D-Phe(2-F)-Arg-Trp-Lys)-NH2] | 10 nM | 2 nM | 79% | 0.095 nM | 95%
CC(=O)N[C@H](CCCNC(=N)N)C(=O)N[C@H]1CC(=O)NCCCC[C@@H](C(N)=O)NC(=O)[C@H](Cc2c[nH]c3ccccc23)NC(=O)[C@H](CCCNC(=N)N)NC(=O)[C@@H](Cc2ccc(F)cc2)NC(=O)[C@H](CCC(N)=O)NC1=O [Example 83, Ac-D-Arg-cyclo(Asp-Gln-D-Phe(4-F)-Arg-Trp-Lys)-NH2] | 6 nM | 0.75 nM | 78% | 0.075 nM | 94%
CC(=O)N[C@@H](CCCNC(=N)N)C(=O)N[C@H]1CCC(=O)NCCC[C@@H](C(N)=O)NC(=O)[C@H](Cc2c[nH]c3ccccc23)NC(=O)[C@H](CCCNC(=N)N)NC(=O)[C@@H](Cc2ccccc2Cl)NC(=O)[C@@H]2CCCN2C1=O [Example 88, Ac-Arg-cyclo(Glu-Pro-D-Phe(2-Cl)-Arg-Trp-Orn)-NH2] | 5 nM | 3 nM | 15% | 0.35 nM | 89%
CC(=O)N[C@@H](CCCNC(=N)N)C(=O)N[C@H]1CC(=O)NCCCC[C@@H](C(N)=O)NC(=O)[C@H](Cc2c[nH]c3ccccc23)NC(=O)[C@H](CCCNC(=N)N)NC(=O)[C@@H](Cc2ccc(C#N)cc2)NC(=O)[C@H](CC(N)=O)NC1=O [Example 89, Ac-Arg-cyclo(Asp-Asn-D-Phe(4-CN)-Arg-Trp-Lys)-NH2] (Ac-RDN[dPhe(4-CN)]RWK-NH2; lactam 2-7) | 48 nM |  | 6% |  | 87%
CC(=O)N[C@@H](CCCNC(=N)N)C(=O)N[C@H]1CC(=O)NCCCC[C@@H](C(N)=O)NC(=O)[C@H](Cc2c[nH]c3ccccc23)NC(=O)[C@H](CCCNC(=N)N)NC(=O)[C@@H](Cc2ccc(C#N)cc2)NC(=O)[C@H](CCC(N)=O)NC1=O [Example 90, Ac-Arg-cyclo(Asp-Gln-D-Phe(4-CN)-Arg-Trp-Lys)-NH2] | 5 nM | 4 nM | 31% |  | 96%
CC(=O)N[C@@H](CCCNC(=N)N)C(=O)N[C@H]1CCCNC(=O)CC[C@@H](C(N)=O)NC(=O)[C@H](Cc2c[nH]c3ccccc23)NC(=O)[C@H](CCCNC(=N)N)NC(=O)[C@@H](Cc2ccc(C#N)cc2)NC(=O)[C@H](CC(N)=O)NC1=O [Example 91, Ac-Arg-cyclo(Orn-Asn-D-Phe(4-CN)-Arg-Trp-Glu)-NH2] | 4 nM | 1 nM | 18% | 0.265 nM | 96%

Second part, the molecule after the results:

Ki [1] | EC50 [2, 3] | Emax [2, 3] | EC50 [2, 4] | Emax [2, 4] | SMILES
0.25 nM | 0.075 nM | 56% | 0.075 nM | 92% | CC(=O)N[C@H](CCCNC(=N)N)C(=O)N[C@H]1CCCNC(=O)CC[C@@H](C(N)=O)NC(=O)[C@H](Cc2c[nH]c3ccccc23)NC(=O)[C@H](CCCNC(=N)N)NC(=O)[C@@H](Cc2ccc(F)c(F)c2)NC(=O)[C@H](Cc2c[nH]cn2)NC1=O [Example 54, Ac-D-Arg-cyclo(Orn-His-D-Phe(3,4-diF)-Arg-Trp-Glu)-NH2]
4 nM |  | 6% | 0.95 nM | 89% | CC(=O)N[C@@H](CCCNC(=N)N)C(=O)N[C@H]1CCC(=O)NCCC[C@@H](C(N)=O)NC(=O)[C@H](Cc2c[nH]c3ccccc23)NC(=O)[C@H](CCCNC(=N)N)NC(=O)[C@@H](Cc2cccc(Cl)c2)NC(=O)[C@H](CN)NC1=O [Example 61, Ac-Arg-cyclo(Glu-Dap-D-Phe(3-Cl)-Arg-Trp-Orn)-NH2]
3 nM | 0.4 nM | 64% | 0.1 nM | 91% | CC(=O)N[C@@H](CCCNC(=N)N)C(=O)N[C@H]1CCCNC(=O)CC[C@@H](C(N)=O)NC(=O)[C@H](Cc2c[nH]c3ccccc23)NC(=O)[C@H](CCCNC(=N)N)NC(=O)[C@@H](Cc2ccc(F)cc2)NC(=O)[C@H](CC(N)=O)NC1=O [Example 70, Ac-Arg-cyclo(Orn-Asn-D-Phe(4-F)-Arg-Trp-Glu)-NH2]
3 nM | 1 nM | 64% | 0.065 nM | 100% | COc1cccc(C[C@H]2NC(=O)[C@H](CCN)NC(=O)[C@@H](NC(=O)[C@H](CCCNC(=N)N)NC(C)=O)CCC(=O)NCCC[C@@H](C(N)=O)NC(=O)[C@H](Cc3c[nH]c4ccccc34)NC(=O)[C@H](CCCNC(=N)N)NC2=O)c1 [Example 87, Ac-Arg-cyclo(Glu-Dab-D-Phe(3-OMe)-Arg-Trp-Orn)-NH2]
2 nM | 0.1 nM | 81% |  | 89% | CC(=O)N[C@@H](CCCNC(=N)N)C(=O)N[C@H]1CCC(=O)NCCC[C@@H](C(N)=O)NC(=O)[C@H](Cc2c[nH]c3ccccc23)NC(=O)[C@H](CCCNC(=N)N)NC(=O)[C@@H](Cc2ccc(F)cc2)NC(=O)[C@H](CCC(N)=O)NC1=O [Example 92, Ac-Arg-cyclo(Glu-Gln-D-Phe(4-F)-Arg-Trp-Orn)-NH2]
1 nM | 0.3 nM | 44% | 0.17 nM | 97% | CC(=O)N[C@@H](CCCNC(=N)N)C(=O)N[C@H]1CCCCNC(=O)C[C@@H](C(N)=O)NC(=O)[C@H](Cc2c[nH]c3ccccc23)NC(=O)[C@H](CCCNC(=N)N)NC(=O)[C@@H](Cc2ccc(C#N)cc2)NC(=O)[C@H](CCC(N)=O)NC1=O [Example 93, Ac-Arg-cyclo(Lys-Gln-D-Phe(4-CN)-Arg-Trp-Asp)-NH2] (Ac-RKQ[dPhe(4-CN)]RWD-NH2; lactam 2-7)
